Reference: US7335632B2, “Beta-secretase inhibitors and methods of use thereof” (CoMentis, Inc., priority 2001, dated 2008)
Where two headings read alike, the source gives them in different places.

Experiments:
memapsin 2 = memapsin 2 (Homo sapiens, UniProt P56817); assay: Inhibition of memapsin 2 beta-secretase activity toward fluorogenic substrate FS-2; type: biochemical; settings: pH 4, 37° C., 20 minutes pre-incubation, substrate FS-2, tight-binding model; read-out: M2 Ki
Procedure: Potency of compounds were determined by measurement of their inhibition of memapsin 2 activity toward a fluorescent substrate. […] Briefly, assays were performed at pH 4, 37° C., by pre-incubation of memapsin 2 enzyme with compound for 20 minutes. Activity measure was initiated by addition of a fluorogenic substrate FS-2 (Bachem Americas, Torrance, Calif.). Fluorescent signal increase over time was measured as a rate of hydrolysis of the peptide substrate.

Cathepsin D = Cathepsin D (Homo sapiens, UniProt P07339); assay: Inhibition of cathepsin D activity (substrate peptide […], MALDI-TOF); type: biochemical; settings: pH 4.1, 37 degrees C., read-out: Cath D Ki
memapsin 1 = target: T1, memapsin 1 (Homo sapiens, UniProt Q9Y5Z0); assay: Inhibition of memapsin 1 beta-secretase activity (substrate peptide […], MALDI-TOF); type: biochemical; settings: pH 4.1, 37 degrees C., substrate NH3-ELDLAVEFWHDR-CO2, MALDI-TOF; read-out: M1 Ki
T1 sequence (Q9Y5Z0 63-518): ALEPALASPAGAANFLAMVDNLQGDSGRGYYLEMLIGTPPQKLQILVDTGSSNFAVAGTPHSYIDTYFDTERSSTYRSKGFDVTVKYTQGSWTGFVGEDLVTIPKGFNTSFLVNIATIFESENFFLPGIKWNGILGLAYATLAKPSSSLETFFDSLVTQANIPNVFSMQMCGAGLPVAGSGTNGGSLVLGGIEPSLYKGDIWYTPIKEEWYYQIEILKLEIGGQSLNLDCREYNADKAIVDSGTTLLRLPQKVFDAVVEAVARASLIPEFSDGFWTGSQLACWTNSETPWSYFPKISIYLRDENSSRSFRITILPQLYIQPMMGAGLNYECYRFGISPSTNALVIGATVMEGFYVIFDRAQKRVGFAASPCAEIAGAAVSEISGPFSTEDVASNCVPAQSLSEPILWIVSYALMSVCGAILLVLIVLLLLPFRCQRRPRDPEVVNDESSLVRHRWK

Aβ production = assay: Cellular Aβ IC50 determination (Aβ40 sandwich ELISA); type: cell-based; settings: Cricetulus griseus, Chinese hamster ovary cells over-expressing human APP695 with London and Swedish mutations, 24 h
Procedure: The potency of compounds against memapsin 2 activity was determined in a cellular assay of Aβ production. […] Chinese hamster ovary cells that over-express human APP695 with the London and Swedish mutations were seeded in multi-well plates at 10% confluency. Compounds were dissolved in DMSO to concentrations near 1 mM, and diluted into culture media to a final concentration near 4 μM (final 0.4% DMSO). Compounds were diluted serially and applied to cells in multi-well plates 48 h after seeding. Incubation was continued in 5% CO2 at 37 degrees C. for 24 h. Aliquots were removed and assayed for Aβ40 content using a sandwich ELISA (BioSource International). Amount of Aβ40 over the range of concentration of compounds, relative to control incubations, were fit to a 4-parameter IC50 model.

[1] = substrate NH3-[…]-CO2, MALDI-TOF

Sequence of Cathepsin D (P07339 65-412, species assumed): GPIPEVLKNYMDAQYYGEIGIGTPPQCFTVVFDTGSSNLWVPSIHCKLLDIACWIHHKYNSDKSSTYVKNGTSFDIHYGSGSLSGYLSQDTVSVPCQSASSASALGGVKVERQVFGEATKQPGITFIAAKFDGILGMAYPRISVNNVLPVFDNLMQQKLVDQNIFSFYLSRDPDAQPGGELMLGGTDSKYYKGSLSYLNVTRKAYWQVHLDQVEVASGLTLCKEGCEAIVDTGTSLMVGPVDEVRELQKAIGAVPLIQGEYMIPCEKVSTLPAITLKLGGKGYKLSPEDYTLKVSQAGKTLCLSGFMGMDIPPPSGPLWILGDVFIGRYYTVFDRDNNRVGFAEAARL
Sequence of memapsin 2 (P56817 46-501): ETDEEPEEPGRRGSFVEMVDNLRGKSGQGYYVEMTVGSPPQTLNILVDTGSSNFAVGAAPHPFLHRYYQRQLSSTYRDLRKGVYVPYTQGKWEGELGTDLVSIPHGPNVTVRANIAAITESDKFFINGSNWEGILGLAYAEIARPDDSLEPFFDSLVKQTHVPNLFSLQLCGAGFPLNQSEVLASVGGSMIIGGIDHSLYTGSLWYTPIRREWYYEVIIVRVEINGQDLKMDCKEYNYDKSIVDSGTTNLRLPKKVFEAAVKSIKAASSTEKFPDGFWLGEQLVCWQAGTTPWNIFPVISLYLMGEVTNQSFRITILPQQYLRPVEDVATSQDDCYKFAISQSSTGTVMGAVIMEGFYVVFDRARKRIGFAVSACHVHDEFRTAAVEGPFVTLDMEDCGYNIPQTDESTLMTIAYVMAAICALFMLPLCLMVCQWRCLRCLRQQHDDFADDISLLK

| Ki (memapsin 2) [nM] | Ki (Cathepsin D; [1]) [nM] | Ki (memapsin 1) [nM] | IC50 (Aβ production) [nM] | Ki (Cathepsin D; substrate NH3-ELDLAVEFWHDR-CO2, MALDI-TOF) [nM] | SMILES |
| --- | --- | --- | --- | --- | --- |
| < 100 | < 100 | 100 to 1000 | < 6000 |  | CCC(CC)SC[C@H](NC(=O)OCc1nc(C)cs1)C(=O)N[C@H](CC(C)C)[C@@H](O)C[C@@H](C)C(=O)N[C@@H](C(=O)NCC(C)C)C(C)C [Structure 72] |
| < 100 | 100 to 1000 | 100 to 1000 | > 100000 |  | Cc1csc(CCC(=O)N[C@@H](CS(C)(=O)=O)C(=O)N[C@H](CC(C)C)[C@@H](O)C[C@@H](C)C(=O)N[C@@H](C(=O)NCC(C)C)C(C)C)n1 [Structure 40] |
| < 100 | 100 to 1000 | < 100 | < 6000 |  | Cc1nc(COC(=O)N[C@@H](CS(C)(=O)=O)C(=O)N[C@H](CC(C)C)[C@@H](O)C[C@@H](C)C(=O)N[C@@H](C(=O)NCC(C)C)C(C)C)c(C)s1 [Structure 54] |
| < 100 | 100 to 1000 | 100 to 1000 | < 6000 |  | COCCOCS(=O)(=O)C[C@H](NC(=O)OCc1nc(C)cs1)C(=O)N[C@H](CC(C)C)[C@@H](O)C[C@@H](C)C(=O)N[C@@H](C(=O)NCC(C)C)C(C)C [Structure 30] |
| 100 to 1000 | < 100 | 100 to 1000 | < 6000 |  | CSC[C@H](NC(=O)[C@@H](C)Cc1nc(C)cs1)C(=O)N[C@H](CC(C)C)[C@@H](O)C[C@@H](C)C(=O)N[C@@H](C(=O)NCC(C)C)C(C)C [Structure 64] |
| < 100 | < 100 | < 100 | > 100000 |  | CC[C@@H](Cn1nc(C)cc1C)C(=O)N[C@@H](CS(C)(=O)=O)C(=O)N[C@@H](CC(C)C)[C@@H](O)C[C@@H](C)C(=O)N[C@@H](C(=O)NCC(C)C)C(C)C [Structure 7] |
| < 100 | < 100 | < 100 |  |  | C=CCSC[C@H](NC(=O)CCn1nc(C)cc1C)C(=O)N[C@@H](CC(C)C)[C@@H](O)C[C@@H](C)C(=O)N[C@H](C(=O)NCC(C)C)C(C)C [Structure 10] |
| < 100 | 100 to 1000 | < 100 |  |  | Cc1nc(CCC(=O)N[C@@H](CS(C)(=O)=O)C(=O)N[C@H](CC(C)C)[C@@H](O)C[C@@H](C)C(=O)N[C@@H](C(=O)NCC(C)C)C(C)C)c(C)o1 [Structure 44] |
| < 100 | < 100 | < 100 |  |  | CCc1nc(COC(=O)N[C@@H](CSC)C(=O)N[C@H](CC(C)C)[C@@H](O)C[C@@H](C)C(=O)N[C@@H](C(=O)NCC(C)C)C(C)C)c(C)s1 [Structure 70] |
| 100 to 1000 | < 100 | 100 to 1000 |  |  | CSC[C@H](NC(=O)OCc1csc(C)n1)C(=O)N[C@H](CC(C)C)[C@@H](O)C[C@@H](C)C(=O)N[C@@H](C(=O)NCC(C)C)C(C)C [Structure 21] |
| > 1000 | < 100 | 100 to 1000 |  |  | CCS(=O)(=O)C[C@H](NC(=O)OCc1nc(C)c[s+]1[O-])C(=O)N[C@H](CC(C)C)[C@@H](O)C[C@@H](C)C(=O)N[C@@H](C(=O)NCC(C)C)C(C)C (stereo partly shown) [Structure 24] |
| 100 to 1000 | 100 to 1000 | 100 to 1000 |  |  | Cc1nc(COC(=O)N[C@@H](CS(C)(=O)=O)C(=O)N[C@H](CC(C)C)[C@@H](O)C[C@@H](C)C(=O)N[C@@H](C(=O)NCC(C)C)C(C)C)co1 [Structure 28] |
| < 100 |  | < 100 |  | < 100 | CSC[C@H](NC(=O)[C@@H](C)Cc1nc(C)cs1)C(=O)N[C@H](CC(C)C)[C@@H](O)C[C@@H](C)C(=O)N[C@@H](C(=O)NCC(C)C)C(C)C [Structure 65] |
| 100 to 1000 | 100 to 1000 | 100 to 1000 |  |  | COCS(=O)(=O)C[C@H](NC(=O)CCn1nc(C)cc1C)C(=O)N[C@H](CC(C)C)[C@@H](O)C[C@@H](C)C(=O)N[C@@H](C(=O)NCC(C)C)C(C)C [Structure 15] |
| < 100 | < 100 | < 100 |  |  | COCSC[C@H](NC(=O)CCn1nc(C)cc1C)C(=O)N[C@H](CC(C)C)[C@@H](O)C[C@@H](C)C(=O)N[C@@H](C(=O)NCC(C)C)C(C)C [Structure 14] |
| < 100 | < 100 | 100 to 1000 |  |  | CC[C@H](C[C@H](O)[C@@H](CC(C)C)NC(=O)[C@H](CSC)NC(=O)OCc1nc(C)oc1C)C(=O)N[C@@H](C(=O)NCC(C)C)C(C)C [Structure 89] |

Second part, the compound before the results:

| SMILES | Ki (memapsin 2) [nM] | Ki (Cathepsin D; [1]) [nM] | Ki (memapsin 1) [nM] | IC50 (Aβ production) [nM] | Ki (Cathepsin D; substrate NH3-ELDLAVEFWHDR-CO2, MALDI-TOF) [nM] |
| --- | --- | --- | --- | --- | --- |
| Cc1nc(COC(=O)N[C@@H](CS(C)(=O)=O)C(=O)N[C@H](CC(C)C)[C@@H](O)C[C@@H](C)C(=O)N[C@@H](C(=O)NCc2ccncc2)C(C)C)c(C)o1 [Structure 48] | < 100 | 100 to 1000 | 100 to 1000 | < 6000 |  |
| Cc1csc(COC(=O)N[C@@H](CS(C)(=O)=O)C(=O)N[C@H](Cc2ccccc2)[C@@H](O)C[C@@H](C)C(=O)N[C@@H](C(=O)NCC(C)C)C(C)C)n1 [Structure 55] | < 100 | < 100 | < 100 | 6000 to 100000 |  |
| Cc1nc(COC(=O)N[C@@H](CS(C)(=O)=O)C(=O)N[C@H](CC(C)C)[C@@H](O)C[C@@H](C)C(=O)N[C@@H](C(=O)NCc2ccccn2)C(C)C)c(C)o1 [Structure 91] | < 100 |  |  | > 100000 |  |
| CSC[C@H](NC(=O)OCc1nc(C)cs1)C(=O)N[C@H](CC(C)C)[C@@H](O)C[C@@H](C)C(=O)N[C@@H](C(N)=O)C(C)C [Structure 90] | > 1000 |  |  | < 6000 |  |
| CC[C@H](C[C@H](O)[C@@H](CC(C)C)NC(=O)[C@H](CS(C)(=O)=O)NC(=O)OCc1nc(C)oc1C)C(=O)N[C@@H](C(=O)NCC(C)C)C(C)C [Structure 92] |  |  |  | < 6000 |  |
| CSC[C@H](NC(=O)OCc1nc(C)cs1)C(=O)N[C@H](CC(C)C)[C@@H](O)C[C@@H](C)C(=O)N[C@@H](c1ncc[nH]1)C(C)C [Structure 80] | > 1000 | 100 to 1000 | > 1000 |  |  |
| Cc1noc(COC(=O)N[C@@H](CS(C)(=O)=O)C(=O)N[C@H](CC(C)C)[C@@H](O)C[C@@H](C)C(=O)N[C@@H](C(=O)NCC(C)C)C(C)C)n1 [Structure 69] | 100 to 1000 | 100 to 1000 | 100 to 1000 |  |  |
| CSC[C@H](NC(=O)OCc1nc(C)cs1)C(=O)N[C@H](CC(C)C)[C@@H](O)C[C@@H](C)C(=O)NCC1CCC(C(=O)OCc2ccccc2)CC1 (stereo partly shown) [Structure 76] | > 1000 | < 100 | > 1000 |  |  |
| Cc1csc(COC(=O)N[C@@H](CS(C)(=O)=O)C(=O)N[C@H](CC(C)C)[C@@H](O)C[C@@H](C)C(=O)NCC2CCC(C(=O)OCc3ccccc3)CC2)n1 (stereo partly shown) [Structure 82] | > 1000 | < 100 | > 1000 |  |  |
| CSC[C@H](NC(=O)OCc1nc(C)cs1)C(=O)N[C@H](CC(C)C)[C@@H](O)C[C@@H](C)C(=O)N[C@H](CN(C)C)C(=O)NC(C)C [Structure 81] | > 1000 | > 1000 | > 1000 |  |  |
| Cc1nc(COC(=O)N[C@@H](CS(C)(=O)=O)C(=O)N[C@H](Cc2ccccc2)[C@@H](O)C[C@@H](C)C(=O)N[C@@H](C(=O)NCC(C)C)C(C)C)c(C)o1 [Structure 51] | < 100 | < 100 | < 100 |  |  |
| Cc1csc(COC(=O)N[C@@H](CS(C)(=O)=O)C(=O)N[C@H](CC(C)C)[C@@H](O)C[C@@H](C)C(=O)N[C@@H](C(=O)NCc2ccncc2)C(C)C)n1 [Structure 45] | 100 to 1000 | 100 to 1000 | > 1000 |  |  |
| COc1ccc(C[C@H](NC(=O)[C@H](CS(C)(=O)=O)NC(=O)OCc2nc(C)oc2C)[C@@H](O)C[C@@H](C)C(=O)N[C@H](C(=O)NCC(C)C)C(C)C)cc1 [Structure 98] | > 1000 | < 100 | 100 to 1000 |  |  |
| Cc1nc(COC(=O)N[C@@H](CS(C)(=O)=O)C(=O)N[C@H](CC(C)C)[C@@H](O)C[C@@H](C)C(=O)N[C@@H](C(=O)OCc2ccccc2)C(C)C)c(C)o1 [Structure 85] | 100 to 1000 | 100 to 1000 | 100 to 1000 |  |  |
| CSC[C@H](NC(=O)OCc1nc(C)oc1C)C(=O)N[C@@H](CC(C)C)[C@@H](O)C[C@@H](C)C(=O)N[C@H](C(=O)Nc1nccs1)C(C)C [Structure 96] | 100 to 1000 | < 100 | 100 to 1000 |  |  |
| CSC[C@H](NC(=O)OCc1nc(C)cs1)C(=O)N[C@H](Cc1ccccc1)[C@@H](O)C[C@@H](C)C(=O)N[C@@H](C(=O)NCC(C)C)C(C)C [Structure 52] | < 100 | < 100 | 100 to 1000 |  |  |
